The numbers were not newly measured in article PMC4085797, “Synthetic Inositol Phosphate Analogs Reveal that PPIP5K2 Has a Surface-Mounted Substrate Capture Site that Is a Target for Drug Discovery” (Chemistry & Biology, 2014), which cites them from elsewhere.

Substitutions are numbered along the chain they refer to.

In data set [1] the target is T1, human IP6K2 (Homo sapiens, UniProt Q9UHH9).
T1 construct: Full-length human IP6K2, the kinase domain of human PPIP5K2; made in house
T1 sequence (Q9UHH9 1-426): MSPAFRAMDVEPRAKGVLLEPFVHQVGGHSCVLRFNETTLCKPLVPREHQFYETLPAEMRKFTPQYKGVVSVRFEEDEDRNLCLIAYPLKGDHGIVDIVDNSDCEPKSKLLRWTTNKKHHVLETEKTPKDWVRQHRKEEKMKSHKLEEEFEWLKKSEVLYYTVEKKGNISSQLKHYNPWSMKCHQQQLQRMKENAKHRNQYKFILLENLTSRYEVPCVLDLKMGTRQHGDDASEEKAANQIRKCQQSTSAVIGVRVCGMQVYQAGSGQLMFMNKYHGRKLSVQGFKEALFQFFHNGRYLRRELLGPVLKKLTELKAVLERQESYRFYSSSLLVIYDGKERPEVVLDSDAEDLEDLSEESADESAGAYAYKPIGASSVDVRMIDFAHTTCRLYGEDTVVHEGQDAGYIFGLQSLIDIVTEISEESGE
On the set-up: method as in Saiardi et al., 2000. To be noted: ref Saiardi et al., 2000; cited from earlier work.

Data set [2] concerns the target T2, human PPIP5K2^KD (Homo sapiens, UniProt O43314).
T2 construct: The kinase domain of human PPIP5K2 (PPIP5K2^KD; residues 1–366); made in house
T2 sequence (O43314 1-366): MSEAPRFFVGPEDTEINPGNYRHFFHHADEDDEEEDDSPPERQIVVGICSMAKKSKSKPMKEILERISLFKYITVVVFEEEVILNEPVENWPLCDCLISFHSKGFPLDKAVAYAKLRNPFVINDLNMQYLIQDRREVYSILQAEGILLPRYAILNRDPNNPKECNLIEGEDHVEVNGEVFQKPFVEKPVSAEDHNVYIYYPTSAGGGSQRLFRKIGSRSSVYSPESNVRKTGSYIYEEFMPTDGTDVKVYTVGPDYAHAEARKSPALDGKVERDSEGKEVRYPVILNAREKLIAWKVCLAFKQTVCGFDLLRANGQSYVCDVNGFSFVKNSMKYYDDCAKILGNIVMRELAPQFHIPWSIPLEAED
Also on record: method as in Weaver et al., 2013. To be noted: ref Weaver et al., 2013; cited from earlier work.

In data set [3] the target is T3, PPIP5K2^KD R213A mutant (Homo sapiens, UniProt O43314, R213A).
T3 construct: The kinase domain of human PPIP5K2 (PPIP5K2^KD; residues 1–366); made in house
T3 sequence (O43314 1-366 R213A): T2 sequence (O43314 1-366) with R213A
On the set-up: method as in Weaver et al., 2013. To be noted: R213A mutation; ref Weaver et al., 2013; cited from earlier work.

Data set [4] deals with T4, PPIP5K2^KD (kinase domain of human PPIP5K2) (Homo sapiens, UniProt O43314).
T4 construct: The kinase domain of human PPIP5K2 (PPIP5K2^KD; residues 1–366); made in house
T4 sequence (O43314 1-366): T2 sequence (O43314 1-366)
Also on record: method as in Weaver et al., 2013. The conditions noted are these: 25 μM; ref Weaver et al., 2013; cited from earlier work.

`O=P(O)(O)O[C@H]1[C@H](OP(=O)(O)O)[C@@H](OP(=O)(O)O)[C@H](OP(=O)(O)O)[C@@H](OP(=O)(O)O)[C@H]1OP(=O)(O)O` [InsP6]: in data set [1], the “affinity of IP6K2 for InsP6” value is 430 nM. Moreover, the “affinity for InsP6 phosphorylation by PPIP5K2^KD” value in data set [2] is reported as 390 nM. In addition, the “InsP6-stimulated ATPase activity (in words)” value in data set [3] was “abolished”. The “activation of substrate-stimulated ATPase activity” value in data set [4] is given as 2- to 3 fold.
